Where a chain is given by its changes, count along the chain named. Blank lines part the entries; values can stand above or below the compound they belong to.
Key:
Homo sapiens = species: Homo sapiens; assay: Selectivity ratio of IC50 for AKR1C2 (unknown origin) to IC50 for AKR1C3 (unknown origin)
[1] = target: T1, Aldo-keto reductase family 1 member C1 (Homo sapiens, UniProt Q04828); assay: Inhibition of recombinant AKR1C1 (unknown origin) dehydrogenase activity by measuring NADH formation by spectrophotometry
T1 sequence (Q04828 whole entry): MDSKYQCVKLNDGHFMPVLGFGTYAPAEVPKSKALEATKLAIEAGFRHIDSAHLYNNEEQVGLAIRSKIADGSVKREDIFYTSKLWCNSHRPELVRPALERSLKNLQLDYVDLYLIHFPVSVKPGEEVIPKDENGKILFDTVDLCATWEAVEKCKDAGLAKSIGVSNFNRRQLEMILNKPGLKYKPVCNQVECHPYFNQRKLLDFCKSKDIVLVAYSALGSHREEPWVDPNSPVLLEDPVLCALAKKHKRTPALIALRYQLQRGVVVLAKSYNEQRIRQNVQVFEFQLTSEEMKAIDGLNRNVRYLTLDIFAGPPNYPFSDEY

[2] = Prodrug conversion in mouse liver microsomes assessed as formation of (E)-3-(3-(11,2,4)triazolo(1,5-alpyridin-6-y1)-5-((4-methylbenzy1)-carbamoyl)phenyl)acrylic acid over 60 mins; assay type: ADME, Microsome; settings: 1 h
[3] = AUC (0 to infinity) in BALB/c mouse assessed as (E)-3-(3-(11,2,4)triazolo(1,5-alpyridin-6-y1)-5-((4-methylbenzy1)-carbamoyl)phenyl)acrylic acid at 10 mg/kg, po measured upto 24 hrs; assay type: ADME, organism-based; set-up: time < 24 hrs, dose 10 mg/kg, route po; settings: in vivo
[4] = Metabolic stability in mouse plasma assessed as formation of (E)-3-(3-(11,2,4)triazolo(1,5-alpyridin-6-y1)-5-((4-methylbenzy1)-carbamoyl)phenyl)acrylic acid; assay type: ADME, cell-free
[5] = AUC (0 to t) in BALB/c mouse at 10 mg/kg, po measured upto 24 hrs; assay type: ADME, organism-based; set-up: time < 24 hrs, dose 10 mg/kg, route po; settings: in vivo
[6] = Prodrug conversion in human liver microsomes assessed as formation of (E)-3-(3-(11,2,4)triazolo(1,5-alpyridin-6-y1)-5-((4-methylbenzy1)-carbamoyl)phenyl)acrylic acid over 60 mins; assay type: ADME, Microsome; settings: 1 h
[7] = Toxicity in NSG mouse xenografted with human 22Rv1 cells assessed as body weight loss at 25 to 50 mg/kg, ip treated for 26 days; assay type: organism-based, CWR22R; settings: in vivo, 624 h, dose 25-50 mg/kg, time 26 day
CWR22R [8] = assay: Antitumor activity against human 22Rv1 cells xenografted in NSG mouse tumor model assessed as reduction in tumor volume at 50 mg/kg, ip treated for 26 days relative to control; assay type: functional; settings: 22Rv1, 624 h, time 26 day
[9] = Stability of compound in SGF assessed as compound remaining after 1 hrs; assay type: ADME; settings: simulated gi fluid
[10] = Metabolic stability in human liver microsomes assessed as compound degradation by LC-MS/MS analysis; assay type: ADME, Microsome; settings: read-out: Drug degradation
[11] = AUC (0 to t) in BALB/c mouse assessed as (E)-3-(3-(11,2,4)triazolo(1,5-alpyridin-6-y1)-5-((4-methylbenzy1)-carbamoyl)phenyl)acrylic acid at 10 mg/kg, po measured upto 24 hrs; assay type: ADME, organism-based; set-up: dose 10 mg/kg, time < 24 hrs, route po; settings: in vivo
[12] = Stability of compound in SIF assessed as compound remaining after 2 hrs; assay type: ADME; settings: simulated gi fluid
[13] = Cmax in BALB/c mouse assessed as (E)-3-(3-(11,2,4)triazolo(1,5-alpyridin-6-y1)-5-((4-methylbenzy1)-carbamoyl)phenyl)acrylic acid at 10 mg/kg, po measured upto 24 hrs; assay type: ADME, organism-based; set-up: dose 10 mg/kg, time < 24 hrs, route po; settings: in vivo
[14] = Cmax in BALB/c mouse at 10 mg/kg, po measured upto 24 hrs; assay type: ADME, organism-based; set-up: dose 10 mg/kg, time < 24 hrs, route po; settings: in vivo
[15] = Tmax in BALB/c mouse at 10 mg/kg, po measured upto 24 hrs; assay type: ADME, organism-based; settings: in vivo
[16] = Stability on mouse plasma assessed as compound remaining measured at 30 mins; assay type: ADME, cell-free; settings: 0.5 h
CWR22R [17] = assay: Antitumor activity against human 22Rv1 cells xenografted in NSG mouse tumor model assessed as reduction in tumor volume at 25 mg/kg, ip treated for 26 days relative to control; assay type: functional; settings: 22Rv1, 624 h, time 26 day
[18] = Tmax in BALB/c mouse assessed as (E)-3-(3-(11,2,4)triazolo(1,5-alpyridin-6-y1)-5-((4-methylbenzy1)-carbamoyl)phenyl)acrylic acid at 10 mg/kg, po measured upto 24 hrs; assay type: ADME, organism-based; settings: in vivo
[19] = Half life in BALB/c mouse assessed as (E)-3-(3-(11,2,4)triazolo(1,5-alpyridin-6-y1)-5-((4-methylbenzy1)-carbamoyl)phenyl)acrylic acid at 10 mg/kg, po measured upto 24 hrs; assay type: ADME, organism-based; settings: in vivo
[20] = Metabolic stability in mouse liver microsomes assessed as compound degradation by LC-MS/MS analysis; assay type: ADME, Microsome; settings: read-out: Drug degradation
[21] = target: T2, Aldo-keto reductase family 1 member C2 (Homo sapiens, UniProt P52895); assay: Inhibition of recombinant AKR1C2 (unknown origin) dehydrogenase activity by measuring NADH formation by spectrophotometry
T2 sequence (P52895 whole entry): T1 sequence (Q04828 whole entry) with T38V, R47H, L54V, C87S, V151M, R170H, Q172L

[22] = target: T3, Aldo-keto reductase family 1 member C3 (Homo sapiens, UniProt P42330); assay: Inhibition of recombinant AKR1C3 (unknown origin) dehydrogenase activity by measuring NADH formation by spectrophotometry
T3 sequence (P42330 whole entry): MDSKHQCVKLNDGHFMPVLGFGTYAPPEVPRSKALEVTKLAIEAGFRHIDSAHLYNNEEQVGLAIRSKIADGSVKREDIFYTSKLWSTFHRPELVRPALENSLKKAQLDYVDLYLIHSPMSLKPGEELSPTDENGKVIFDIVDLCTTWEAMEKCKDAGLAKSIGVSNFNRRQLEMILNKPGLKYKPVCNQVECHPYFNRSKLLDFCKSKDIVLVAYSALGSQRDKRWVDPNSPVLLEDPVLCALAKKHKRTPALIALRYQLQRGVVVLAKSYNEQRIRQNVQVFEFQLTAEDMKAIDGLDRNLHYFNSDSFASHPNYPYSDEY

[23] = Apparent oral clearance in BALB/c mouse at 10 mg/kg, po measured upto 24 hrs; assay type: ADME, organism-based; settings: in vivo
[24] = AUC (0 to infinity) in BALB/c mouse at 10 mg/kg, po measured upto 24 hrs; assay type: ADME, organism-based; set-up: time < 24 hrs, dose 10 mg/kg, route po; settings: in vivo
[25] = target: T4, Aldo-keto reductase family 1 member C1 (Homo sapiens) (UniProt Q04828); assay: Inhibition of recombinant AKR1C1 (unknown origin) dehydrogenase activity at 100 uM by measuring NADH formation by spectrophotometry relative to control
T4 sequence (whole entry): T1 sequence (Q04828 whole entry)

[26] = Apparent volume of distribution during terminal phase in BALB/c mouse at 10 mg/kg, po measured upto 24 hrs; assay type: ADME, organism-based; settings: in vivo
[27] = Half life in BALB/c mouse at 10 mg/kg, po measured upto 24 hrs; assay type: ADME, organism-based; settings: in vivo
[28] = Extrapolated AUC in BALB/c mouse at 10 mg/kg, po measured upto 24 hrs; assay type: ADME, organism-based; settings: in vivo
[29] = target: T3, Aldo-keto reductase family 1 member C3; assay: Inhibition of AKR1C3 (unknown origin)

Ratio IC50 (Homo sapiens): 221
Compound: Cc1ccc(CNC(=O)c2cc(/C=C/C(=O)O)cc(-c3ccc(-n4c5ccccc5c5ccccc54)cc3)c2)cc1

Ratio IC50 (Homo sapiens): 51
Compound: CC[C@@H](NC(=O)c1cc(/C=C/C(=O)O)cc(-c2ccc(C(C)C)cc2)c1)c1ccccc1

Ratio IC50 (Homo sapiens): 354
IC50 [1]: > 100 µM
Compound: C/C=C/Cc1cc(/C=C/C(=O)O)cc(C(=O)NCc2ccc(C)cc2)c1

Ratio IC50 (Homo sapiens): 177
Compound: Cc1ccc(CNC(=O)c2cc(/C=C/C(=O)O)cc(CC(C)c3ccccc3)c2)cc1 (centres undefined)

Ratio IC50 (Homo sapiens): 61
Compound: Cc1ccc(CNC(=O)c2cc(C#Cc3ccccc3)cc(/C=C/C(=O)O)c2)cc1

Ratio IC50 (Homo sapiens): 960
IC50 [1]: > 100 µM
Compound: Cc1ccc(CNC(=O)c2cc(/C=C/C(=O)O)cc(-c3cccc(F)c3)c2)cc1

Drug metabolism [2]: Metabolite_Detected
AUC [3]: 6550.1 ng·h/mL
Drug metabolism [4]: Metabolite_Detected
AUCt [5]: 36.416 ng·h/mL
Drug metabolism [6]: Metabolite_Detected
Stability [9]: Stable
metabolised [10]: 25%
AUCt [11]: 6382.8 ng·h/mL
Stability [12]: Stable
Cmax [13]: 11599.4 ng/mL
Cmax [14]: 92.796 ng/mL
Tmax [15]: 19 min
Stability [16]: Unstable
Tmax [18]: 12 min
t1/2 [19]: 534 min
metabolised [20]: 25%
Compound: COC(=O)/C=C/c1cc(C(=O)NCc2ccc(C)cc2)cc(-c2ccc3ncnn3c2)c1
Activity [7]: Non-Toxic
inhibition in vivo at 50 mg/kg (CWR22R [8]): 45%
inhibition in vivo at 25 mg/kg (CWR22R [17]): 30%

Ratio IC50 (Homo sapiens): 333
IC50 [1]: > 100 µM
Compound: Cc1ccc(CNC(=O)c2cc(/C=C/C(=O)O)cc(-c3ccc(Cl)cc3)c2)cc1

Ratio IC50 (Homo sapiens): 109
Compound: Cc1ccc(CNC(=O)c2cc(/C=C/C(=O)O)cc(-c3ccc4cccnc4c3)c2)cc1

Ratio IC50 (Homo sapiens): > 333
IC50 [21]: > 100 µM
IC50 [1]: > 100 µM
Compound: Cc1ccc(CNC(=O)c2cc(Br)cc(/C=C/C(=O)O)c2)cc1

Ratio IC50 (Homo sapiens): 200
Compound: C/C=C\Cc1cc(/C=C/C(=O)O)cc(C(=O)NCc2ccc(C)cc2)c1

Ratio IC50 (Homo sapiens): 16
Compound: Cc1ccc(CNC(=O)c2cc(/C=C/C(=O)O)cc(-c3ccc(CN4CCOCC4)c(F)c3)c2)cc1

Ratio IC50 (Homo sapiens): 160
Compound: Cc1ccc(CNC(=O)c2cc(/C=C/C(=O)O)cc(-c3ccc(C)cc3)c2)cc1

IC50 [22]: 2.7 µM
Compound: CC(C)=CCc1cc(/C=C/C#N)cc(C(=O)NCc2ccc(C)cc2)c1

Ratio IC50 (Homo sapiens): 1220
AUCt [5]: 367.6 ng·h/mL
CL/F [23]: 323 mL/min/kg
AUC [24]: 515.1 ng·h/mL
Stability [9]: Stable
inhibition [25]: 8%
Stability [12]: Stable
Vz/F [26]: 405 L/kg
Cmax [14]: 174.8 ng/mL
t1/2 [27]: 864 min
Tmax [15]: 6 min
IC50 [1]: > 100 µM
%AUCextra [28]: 28.8%
Compound: Cc1ccc(CNC(=O)c2cc(/C=C/C(=O)O)cc(-c3ccc4ncnn4c3)c2)cc1

IC50 [22]: 1.4 µM
Compound: Cc1ccc(CNC(=O)c2cc(/C=C/C#N)cc(-c3ccc(Oc4ccccc4)cc3)c2)cc1

Compound: CN(CCC(=O)O)C(=O)c1ccc2c(c1)CC[C@@H]1[C@@H]2CC[C@]2(C)C(c3cncc(F)c3)=CC[C@@H]12
IC50 [29]: 0.0018 µM

Ratio IC50 (Homo sapiens): 200
IC50 [1]: > 100 µM
Compound: Cc1ccc(CNC(=O)c2cc(/C=C/C(=O)O)cc(-c3ccc4c(c3)OCCO4)c2)cc1

Ratio IC50 (Homo sapiens): 600
IC50 [1]: > 100 µM
Compound: Cc1ccc(CNC(=O)c2cc(/C=C/C(=O)O)cc(-c3ccc(F)cc3)c2)cc1

Ratio IC50 (Homo sapiens): 133
Compound: Cc1ccc(CNC(=O)c2cc(/C=C/C(=O)O)cc(-c3ccc4nccnc4c3)c2)cc1

Ratio IC50 (Homo sapiens): > 1430
IC50 [21]: > 100 µM
IC50 [1]: > 100 µM
Compound: Cc1ccc(CNC(=O)c2cc(/C=C/C(=O)O)cc(-c3ccccc3F)c2)cc1

Ratio IC50 (Homo sapiens): 187
Compound: CC(C)=CCOc1cc(/C=C/C(=O)O)cc(C(=O)NCc2ccc(C)cc2)c1

Ratio IC50 (Homo sapiens): 140
Compound: Cc1ccc(CNC(=O)c2cc(/C=C/C(=O)O)cc(-c3ccc4ccccc4c3)c2)cc1

Ratio IC50 (Homo sapiens): 580
Compound: Cc1ccc(CNC(=O)c2cc(/C=C/C(=O)O)cc(-c3ccc(-c4ccccc4)cc3)c2)cc1

Ratio IC50 (Homo sapiens): 51
Compound: Cc1ccc(CNC(=O)c2cc(/C=C/C(=O)O)cc(-c3ccc(Oc4ccccc4)cc3)c2)cc1

Compound: Cc1ccc(CNC(=O)c2cc(/C=C/C(=O)O)cc(-c3ccc4c(c3)OCO4)c2)cc1
IC50 [1]: > 100 µM

Ratio IC50 (Homo sapiens): > 2500
IC50 [21]: > 100 µM
IC50 [1]: > 100 µM
Compound: Cc1ccc(CNC(=O)c2cc(/C=C/C(=O)O)cc(-c3ccccc3)c2)cc1

Ratio IC50 (Homo sapiens): 74
Compound: Cc1ccc(CNC(=O)c2cc(C#CC3CC3)cc(/C=C/C(=O)O)c2)cc1
